Assay results published in patent publication US20090143388A1, “TREATMENT OF BRAIN DISORDERS” (priority 2007, published 2009).
Entries after “also recorded” stand apart in the source; their conditions may differ.

Tests used:
Balb/c mice [1] = assay: MPTP-induced catalepsy; assay type: in vivo; details: for catalepsy (rigidity), drug alone: irsogladine alone, no MPTP
Method: (§1) FIG. 3. Effect of irsogladine on MPTP-induced akinesia (A) and catalepsy (B). Assessment of catalepsy was undertaken 2 h after the treatment of MPTP in Balb/c mice. […] Results given are mean±S.E.M., n=6-8 for control group and 10-12 for MPTP-treated groups (*p<0.01 vs. control; Mann-Whitney Rank Sum test).
(§2) Experimental design. The animals were divided into eight groups. The first four groups of animals received either vehicle (0.5% CMC) or different doses of irsogladine (25, 50, and 100 mg/kg). The fifth group of animals was administered with MPTP. The remaining three groups received the two doses of MPTP, and different doses of irsogladine (25, 50, and 100 mg/kg). Each of the control groups consisted of 6-8 animals; while MPTP treated groups consisted of 10-12 animals. The total period of study was 5 days. Each experiment was repeated at least twice on separate days.
(§3) MPTP was dissolved in normal saline and administered intraperitonially (i.p.), twice, 16 h apart, at the dose of 30 mg/kg to mice. The animals received the first injections at 1700 h and the second at 0900 h the next day. Different doses of irsogladine (25, 50, and 100 mg/kg) were suspended in 0.5% sodium CMC and administered to control and MPTP-treated mice. Irsogladine administration started 30 min after the second MPTP injection and continued at an interval of 12 h for the next two days. The volume of injection was 10 μl/g body weight.
Catalepsy. The term implies the inability of an animal to correct an externally imposed posture. Catalepsy was measured by placing the animals on a flat horizontal surface with both the hind limbs on a square wooden block (3 cm high) and the latency in seconds was measured to move the hind limbs from the block to the ground. The animals were initially acclimatized on the wooden platform.

Balb/c mice [2] = assay: MPTP-induced akinesia; assay type: in vivo
Method: as §1, §2, §3
Akinesia. Akinesia was measured by noting the latency in seconds (s) of the animals to move all four limbs and the test was terminated if the latency exceeded 180 s. Each animal was initially acclimatized for 5 min on a wooden elevated platform (40 cm×40 cm×30 cm) used for measuring akinesia in mice. Using a stopwatch, the time taken (s) by the animal to move all the four limbs was recorded. This exercise was repeated five times for each animal.

Balb/c mice [3] = assay: Striatal 5-HT and 5-HIAA levels by HPLC-electrochemistry; assay type: in vivo; details: for level of 5-HIAA, in words / level of serotonin (5-HT), in words: animals treated with MPTP and/or irsogladine; for 5-HIAA (pmol/mg tissue; Mean ± SEM) / 5-HT (pmol/mg tissue; Mean ± SEM): striatum, 5th day
Method: Serotonin (5-HT) and its metabolite were assayed employing a sensitive HPLC-electrochemical procedure in the striata of Balb/c mice on 5th day following MPTP treatment (30 mg/kg; administered twice, 16 h apart, i.p.). Irsogladine (25, 50 and 100 mg/kg, p.o.) was administered for two days at 12 h intervals following second MPTP injection. Results given are mean±S.E.M., n=6-8 for control groups and 10-12 for MPTP-treated groups
(§4) Animals. Adult male Balb/c mice, weighing 20-25 g were used in the present study. They were housed under standard conditions of temperature (22±1° C.), humidity (60±5%) and illumination (12-h light/dark cycle). The experimental protocol met the National Guidelines on the ‘Proper Care and Use of Animals in Laboratory Research’ (Indian National Science Academy, New Delhi, 2000) and was approved by the Animal Ethics Committee of the Institute. The procedures adhered to the NIH Guidelines for the Care and Use of Laboratory Animals.
as §2, §3
(§5) Analysis of biogenic amines by HPLC-electrochemistry. DA, DOPAC, HVA, 5-HT, and 5-HIAA were assayed employing HPLC equipped with an electrochemical detector. Animals were sacrificed on the 5th day by cervical dislocation. Striata were quickly dissected out from the left and right hemispheres of the brain, weighed, sonicated in chilled HClO4 (0.1 M) containing 0.05% EDTA and centrifuged at 12,500×g for 5 min. The supernatant was injected into an HPLC-ECD system (Merck-Hitachi, Germany). The biogenic amines were separated on an ion-pair Ultrasphere RP analytical column (Beckmann, Calif.). The mobile phase contained 8.65 mM heptane sulfonic acid, 0.27 mM EDTA, 13% acetonitrile (HPLC grade), 0.45% triethylamine, and 0.25% phosphoric acid (v/v). The flow rate was 0.7 ml/min and the glassy carbon working electrode was kept at 0.74 V.

[4] = system: MPP^+-induced hydroxyl radical (.OH) in the mitochondria; assay: MPP+-induced hydroxyl radical (2,3-DHBA) production in sub-mitochondrial particles; assay type: biochemical; details: for MPP+-induced 2,3-DHBA (OH adduct of salicylate) production in the mitochondria: irsogladine 0.01-1 mM, MPP+ 100 μM, sub-mitochondrial particles, 30 min; for increase in the production of 2,3-DHBA (OH production): sub-mitochondrial particles incubated with MPP+ (100 μM)
Method: FIG. 1. Irsogladine scavenges MPP^+-induced OH from the mitochondria. Sub-mitochondrial particles were incubated with the neurotoxic metabolite of MPTP, 1-methyl-4-phenyl pyridinium ion (MPP^+) and salicylic acid in the presence and absence of irsogladine. The resulting OH adducts of salicylate, 2,3-dihydroxy benzoic acid (2,3-DHBA) was assayed using a HPLC equipped with electrochemical detector.
Irsogladine scavenges MPP^+-induced hydroxyl radical (.OH) in the mitochondria. The oxidative metabolite of MPTP, 1-methyl-4-phenylpyridinium ion (MPP^+) is selectively taken into the dopaminergic neurons through dopamine transporters, and sequestered in the mitochondria.
Preparation of sub-mitochondrial particles and estimation of hydroxyl radical. Mitochondrial P2 fraction was obtained by making a 10% homogenate of the cerebral cortex, with a glass-Teflon homogenizer in 0.32 M sucrose in cold 10 mM potassium phosphate buffer, pH 7.2. The homogenate was centrifuged at 1,000×g for 10 min at 4° C. using a Sorvall centrifuge. The supernatant was centrifuged at 10,000×g for 30 min. The pellet was resuspended in the same volume of ice-cold 50 mM Tris in 10 mM potassium phosphate buffer (pH 7.2) and centrifuged at 10,000×g for 30 min. This step was repeated once. The pellet thus obtained was suspended in the same volume of ice-cold 10 mM potassium phosphate buffer, pH 7.2 and kept overnight at −20° C. The mitochondrial suspension was thawed, and the protein content was estimated.
The .OH adduct of salicylate, 2,3-dihydroxybenzoic acid (DHBA), was assayed employing HPLC-electrochemistry as described earlier. The ex-vivo OH production was tested in sub-mitochondrial particles. Mitochondrial fraction was incubated with MPP^+ (100 μM) and phosphate buffer (0.1 M) for 5 min. Sodium salicylate (0.75 mM) and different concentrations of irsogladine (0.01-1 mM) were added 5 min after the addition of MPP^+ and incubated for 30 min. The reaction was stopped by adding equal amount of ice-cold perchloric acid (0.1 M) containing 0.01% EDTA, kept on ice for 30 min and then centrifuged at 10,000×g for 5 min. The supernatant was injected into the HPLC system for the assay of 2,3-DHBA. Standard solution containing 2,3-DHBA was injected prior to and after the analyses of the samples, and the products formed are expressed as pmol/mg protein/min.

Balb/c mice [5] = assay: Striatal DA, DOPAC and HVA by HPLC-electrochemistry in MPTP-treated mice; assay type: in vivo
Method: FIG. 2. Irsogladine reverses MPTP-induced reductions in striatal DA metabolism. Striatal DA (A) and its metabolites, DOPAC (B) and HVA (C) were assayed employing a sensitive HPLC-electrochemical procedure on the 5th day following the administration of MPTP (30 mg/kg; administered twice, 16 h apart, i.p.). Irsogladine (25, 50 and 100 mg/kg, p.o.) was administered for two days at 12 h intervals following the second MPTP injection. Results given are mean±S.E.M., n=6-8 for control groups and 10-12 for MPTP-treated groups (*p<0.05 vs. control; Student's t-test).
as §4, §2, §3, §5

Balb/c mice [6] = assay: Swim-ability (swim score) after MPTP; assay type: in vivo; details: 4th day
Method: FIG. 4. Irsogladine attenuates MPTP-induced swim disability in mice. Effect of different doses of Irsogladine on the swimming ability of Balb/c mice was tested in warm water (27±2° C.) on the fourth day following the treatment of MPTP (30 mg/kg, i.p., twice, 16 h apart). Swim-scores were recorded on a performance intensity scale of 0-3 for all the animals for 10 min. Results given are mean±S.E.M., n=6-8 for control groups and 10-12 for MPTP-treated groups (p≦0.05; vs. control; Wilcoxon Signed Rank test for group comparison).
as §2
MPTP was dissolved in normal saline and administered intraperitonially (i.p.), twice, 16 h apart, at the dose of 30 mg/kg to mice. The animals received the first injections at 1700 h and the second at 0900 h the next day. […]

[7] = highest dose of irsogladine in MPTP-treated mice
[8] = irsogladine 25, 50, 100 mg/kg p.o. in MPTP-treated mice, 2 h after second MPTP injection
[9] = irsogladine 25 mg/kg p.o. + MPTP
[10] = irsogladine 25 mg/kg p.o., no MPTP
[11] = irsogladine 50 mg/kg p.o. + MPTP
[12] = irsogladine 50 mg/kg p.o., no MPTP
[13] = irsogladine 100 mg/kg p.o. + MPTP
[14] = irsogladine 100 mg/kg p.o., no MPTP
[15] = irsogladine post-treatment in MPTP-treated mice
[16] = MPTP 30 mg/kg i.p. twice, 2 h after second injection, compared to saline treated mice
[17] = MPTP alone (30 mg/kg i.p. twice, 16 h apart)

## Nc1nc(N)nc(-c2cc(Cl)ccc2Cl)n1 [Irsogladine, 2,4-diamino-6-(2,5-dichlorophenyl)-s-triazine]
Balb/c mice [1]; [7]
  attenuation of MPTP-induced catalepsy, highest dose: complete
Balb/c mice [1]; [8]
  attenuation of MPTP-induced catalepsy: dose-dependently reduced; also recorded: dose-dependently attenuated
Balb/c mice [1]
  catalepsy (rigidity), drug alone: does not cause catalepsy
Balb/c mice [1]; listed as irsladine
  catalepsy (rigidity), drug alone: absent
Balb/c mice [2]; [7]
  attenuation of MPTP-induced akinesia, highest dose: complete
Balb/c mice [2]; [8]
  attenuation of MPTP-induced akinesia: dose-dependently reduced; also recorded: dose-dependently attenuated
Balb/c mice [2]; irsogladine alone, no MPTP
  akinesia, drug alone: absent
Balb/c mice [3]
  level of 5-HIAA, in words: not altered
  level of serotonin (5-HT), in words: not altered
Balb/c mice [3]; [9]
  5-HIAA (pmol/mg tissue; Mean ± SEM): 2.11 ± 0.17 pmol/mg tissue
  5-HT (pmol/mg tissue; Mean ± SEM): 2.64 ± 0.24 pmol/mg tissue
Balb/c mice [3]; [10]
  5-HIAA (pmol/mg tissue; Mean ± SEM): 2.32 ± 0.31 pmol/mg tissue
  5-HT (pmol/mg tissue; Mean ± SEM): 2.52 ± 0.34 pmol/mg tissue
Balb/c mice [3]; [11]
  5-HIAA (pmol/mg tissue; Mean ± SEM): 2.88 ± 0.17 pmol/mg tissue
  5-HT (pmol/mg tissue; Mean ± SEM): 2.97 ± 0.27 pmol/mg tissue
Balb/c mice [3]; [12]
  5-HIAA (pmol/mg tissue; Mean ± SEM): 2.99 ± 0.29 pmol/mg tissue
  5-HT (pmol/mg tissue; Mean ± SEM): 2.96 ± 0.61 pmol/mg tissue
Balb/c mice [3]; [13]
  5-HIAA (pmol/mg tissue; Mean ± SEM): 2.01 ± 0.09 pmol/mg tissue
  5-HT (pmol/mg tissue; Mean ± SEM): 2.68 ± 0.24 pmol/mg tissue
Balb/c mice [3]; [14]
  5-HIAA (pmol/mg tissue; Mean ± SEM): 2.32 ± 0.16 pmol/mg tissue
  5-HT (pmol/mg tissue; Mean ± SEM): 2.52 ± 0.28 pmol/mg tissue
[4]
  MPP+-induced 2,3-DHBA (OH adduct of salicylate) production in the mitochondria: significantly attenuated
[4]; listed as irsogladine
  MPP+-induced 2,3-DHBA (OH adduct of salicylate) production in the mitochondria: dose-dependently scavenged
Balb/c mice [5]; irsogladine 25, 50 and 100 mg/kg p.o., b.i.d. for 2 days, post-treatment in MPTP-treated mice, 5th day
  protection of striatal DA: significant dose-dependant protection
Balb/c mice [5]; irsogladine alone in control animals
  alteration of striatal DA: did not cause significant alteration
Balb/c mice [5]; [15]
  reversal of MPTP-induced reduction of striatal DOPAC: dose-dependant reversal
  reversal of MPTP-induced reduction of striatal HVA: dose-dependant reversal
Balb/c mice [5]; irsogladine treatment alone
  alteration of striatal DOPAC level: did not cause any significant alterations
  alteration of striatal HVA level: did not cause any significant alterations
Balb/c mice [6]; irsogladine post-treatment in MPTP-treated mice, dose-dependently
  improvement of swim score: significantly improved

## C[n+]1ccc(-c2ccccc2)cc1 [MPP^+, 1-methyl-4-phenylpyridinium ion]
[4]
  increase in the production of 2,3-DHBA (OH production): 5 fold
[4]; listed as MPP+
  increase in the production of 2,3-DHBA (OH production): about 5 fold

## CN1CC=C(c2ccccc2)CC1 [MPTP, 1-methyl-4-phenyl-1,2,3,6-tetrahydropyridine]
Balb/c mice [1]; [16]
  cataleptic behavior induced by MPTP: cataleptic
Balb/c mice [2]; [16]
  akinetic behavior induced by MPTP: significant akinetic
Balb/c mice [3]
  level of 5-HIAA, in words: not altered
  level of serotonin (5-HT), in words: not altered
Balb/c mice [3]; [17]
  5-HIAA (pmol/mg tissue; Mean ± SEM): 2.50 ± 0.24 pmol/mg tissue
  5-HT (pmol/mg tissue; Mean ± SEM): 2.77 ± 0.31 pmol/mg tissue
Balb/c mice [5]; MPTP 30 mg/kg i.p., 2 times 16 h apart, 5th day, compared to saline-injected mice
  depletion of striatal DA: 55%
Balb/c mice [6]; MPTP 30 mg/kg i.p. twice, vs sham-treated animals, from the 2nd minute onwards
  swim score after MPTP: significant reduction
